Results as given in ChEMBL document CHEMBL3885881, “DrugMatrix”.

Species: Rattus norvegicus
Experiment: DrugMatrix - Regimen: Daily Repeat
Type: toxicity, organism-based, Sprague-Dawley
Set-up: regimen Daily Repeat, gender Male, age 6-8 weeks
Details: in vivo, iv, vehicle 100 % SALINE; for ABSOLUTE BASOPHIL / ABSOLUTE EOSINOPHIL / ABSOLUTE LYMPHOCYTE / ABSOLUTE MONOCYTE / ABSOLUTE SEGMENTED NEUTROPHIL / BASOPHIL / EOSINOPHIL / ERYTHROCYTE COUNT / HEMATOCRIT / HEMOGLOBIN / LEUKOCYTE COUNT / LYMPHOCYTE / MEAN CORPUSCULAR HEMOGLOBIN / MEAN CORPUSCULAR HEMOGLOBIN CONCENTRATION / MEAN CORPUSCULAR VOLUME / MONOCYTE / NEUTROPHIL / NUCLEATED RED BLOOD CELLS / PLATELET COUNT: tissue Blood; for ALANINE AMINOTRANSFERASE / ALBUMIN / ALKALINE PHOSPHATASE / ASPARTATE AMINOTRANSFERASE / BLOOD UREA NITROGEN / CARBON DIOXIDE / CHLORIDE / CHOLESTEROL / CREATINE PHOSPHOKINASE / CREATININE / GLUCOSE / LACTATE DEHYDROGENASE / LIPASE / PHOSPHORUS / POTASSIUM / SODIUM / TOTAL BILIRUBIN / TOTAL PROTEIN / URIC ACID: tissue Plasma
[1] = 0 mg/kg, 72 h, dose level Control, time 3 day
[2] = 0 mg/kg, 120 h, dose level Control, time 5 day
[3] = 0.08 mg/kg, 72 h, dose level Low, time 3 day

CC[C@]1(O)C[C@@H]2CN(CCc3c([nH]c4ccccc34)[C@@](C(=O)OC)(c3cc4c(cc3OC)N(C)[C@H]3[C@@](O)(C(=O)OC)[C@H](OC(C)=O)[C@]5(CC)C=CCN6CC[C@]43[C@@H]65)C2)C1 [VINBLASTINE]
ABSOLUTE BASOPHIL [1]: 0 CELLS/uL | ABSOLUTE EOSINOPHIL [1]: 21.67 CELLS/uL | ABSOLUTE LYMPHOCYTE [1]: 10193.67 CELLS/uL | ABSOLUTE MONOCYTE [1]: 165.83 CELLS/uL | ABSOLUTE SEGMENTED NEUTROPHIL [1]: 702.17 CELLS/uL | BASOPHIL [1]: 0% | EOSINOPHIL [1]: 0.17% | ERYTHROCYTE COUNT [1]: 5.39 x10E6/uL | HEMATOCRIT [1]: 34.62% | HEMOGLOBIN [1]: 13.8 G/DL | LEUKOCYTE COUNT [1]: 11.08 x10E3/uL | LYMPHOCYTE [1]: 91.83% | MEAN CORPUSCULAR HEMOGLOBIN [1]: 25.68 pg | MEAN CORPUSCULAR HEMOGLOBIN CONCENTRATION [1]: 39.9 G/DL | MEAN CORPUSCULAR VOLUME [1]: 64.37 fL | MONOCYTE [1]: 1.5% | NEUTROPHIL [1]: 6.5% | NUCLEATED RED BLOOD CELLS [1]: 0 /100WBC | PLATELET COUNT [1]: 1202.83 x10E3/uL | ALANINE AMINOTRANSFERASE [1]: 55.5 u/L | ALBUMIN [1]: 4.22 G/DL | ALKALINE PHOSPHATASE [1]: 406.83 u/L | ASPARTATE AMINOTRANSFERASE [1]: 101.5 u/L | BLOOD UREA NITROGEN [1]: 13.5 mg/dL | CARBON DIOXIDE [1]: 30.33 mmol/L | CHLORIDE [1]: 102.17 MEQ/L | CHOLESTEROL [1]: 63.67 mg/dL | CREATINE PHOSPHOKINASE [1]: 732.67 u/L | CREATININE [1]: 0.2 mg/dL | GLUCOSE [1]: 157 mg/dL | LACTATE DEHYDROGENASE [1]: 442.5 u/L | LIPASE [1]: 10.83 u/L | PHOSPHORUS [1]: 12.68 mg/dL | POTASSIUM [1]: 5.67 MEQ/L | SODIUM [1]: 144 MEQ/L | TOTAL BILIRUBIN [1]: 0.15 mg/dL | TOTAL PROTEIN [1]: 6.02 G/DL | URIC ACID [1]: 1.55 mg/dL | ABSOLUTE BASOPHIL [2]: 0 CELLS/uL | ABSOLUTE EOSINOPHIL [2]: 17 CELLS/uL | ABSOLUTE LYMPHOCYTE [2]: 11849.17 CELLS/uL | ABSOLUTE MONOCYTE [2]: 69.83 CELLS/uL | ABSOLUTE SEGMENTED NEUTROPHIL [2]: 730.67 CELLS/uL | BASOPHIL [2]: 0% | EOSINOPHIL [2]: 0.17% | ERYTHROCYTE COUNT [2]: 5.93 x10E6/uL | HEMATOCRIT [2]: 37.42% | HEMOGLOBIN [2]: 14.4 G/DL | LEUKOCYTE COUNT [2]: 12.67 x10E3/uL | LYMPHOCYTE [2]: 93.17% | MEAN CORPUSCULAR HEMOGLOBIN [2]: 24.32 pg | MEAN CORPUSCULAR HEMOGLOBIN CONCENTRATION [2]: 38.5 G/DL | MEAN CORPUSCULAR VOLUME [2]: 63.08 fL | MONOCYTE [2]: 0.5% | NEUTROPHIL [2]: 6.17% | NUCLEATED RED BLOOD CELLS [2]: 0 /100WBC | PLATELET COUNT [2]: 1170.5 x10E3/uL | ALANINE AMINOTRANSFERASE [2]: 51 u/L | ALBUMIN [2]: 4.12 G/DL | ALKALINE PHOSPHATASE [2]: 392.67 u/L | ASPARTATE AMINOTRANSFERASE [2]: 81.67 u/L | BLOOD UREA NITROGEN [2]: 16.17 mg/dL | CARBON DIOXIDE [2]: 30.67 mmol/L | CHLORIDE [2]: 100.5 MEQ/L | CHOLESTEROL [2]: 64.83 mg/dL | CREATINE PHOSPHOKINASE [2]: 242.67 u/L | CREATININE [2]: 0.2 mg/dL | GLUCOSE [2]: 186.83 mg/dL | LACTATE DEHYDROGENASE [2]: 188 u/L | LIPASE [2]: 10.83 u/L | PHOSPHORUS [2]: 11.67 mg/dL | POTASSIUM [2]: 5.51 MEQ/L | SODIUM [2]: 142.55 MEQ/L | TOTAL BILIRUBIN [2]: 0.22 mg/dL | TOTAL PROTEIN [2]: 6.08 G/DL | URIC ACID [2]: 1.85 mg/dL | ABSOLUTE BASOPHIL [3]: 0 CELLS/uL | ABSOLUTE EOSINOPHIL [3]: 42 CELLS/uL | ABSOLUTE LYMPHOCYTE [3]: 6254.33 CELLS/uL | ABSOLUTE MONOCYTE [3]: 40 CELLS/uL | ABSOLUTE SEGMENTED NEUTROPHIL [3]: 297 CELLS/uL | BASOPHIL [3]: 0% | EOSINOPHIL [3]: 0.67% | ERYTHROCYTE COUNT [3]: 4.48 x10E6/uL | HEMATOCRIT [3]: 28.87% | HEMOGLOBIN [3]: 11.63 G/DL | LEUKOCYTE COUNT [3]: 6.63 x10E3/uL | LYMPHOCYTE [3]: 94.33% | MEAN CORPUSCULAR HEMOGLOBIN [3]: 26 pg | MEAN CORPUSCULAR HEMOGLOBIN CONCENTRATION [3]: 40.33 G/DL | MEAN CORPUSCULAR VOLUME [3]: 64.43 fL | MONOCYTE [3]: 0.67% | NEUTROPHIL [3]: 4.33% | NUCLEATED RED BLOOD CELLS [3]: 0 /100WBC | PLATELET COUNT [3]: 825.33 x10E3/uL | ALANINE AMINOTRANSFERASE [3]: 47.67 u/L | ALBUMIN [3]: 4.1 G/DL | ALKALINE PHOSPHATASE [3]: 395.67 u/L | ASPARTATE AMINOTRANSFERASE [3]: 99 u/L | BLOOD UREA NITROGEN [3]: 14 mg/dL | CARBON DIOXIDE [3]: 32.33 mmol/L | CHLORIDE [3]: 103.33 MEQ/L | CHOLESTEROL [3]: 67.33 mg/dL | CREATINE PHOSPHOKINASE [3]: 526.33 u/L | CREATININE [3]: 0.17 mg/dL | GLUCOSE [3]: 135 mg/dL | LACTATE DEHYDROGENASE [3]: 170.67 u/L | LIPASE [3]: 10.33 u/L | PHOSPHORUS [3]: 11.9 mg/dL | POTASSIUM [3]: 6.35 MEQ/L | SODIUM [3]: 144.8 MEQ/L | TOTAL BILIRUBIN [3]: 0.17 mg/dL | TOTAL PROTEIN [3]: 5.6 G/DL | URIC ACID [3]: 1.13 mg/dL
